Reference: PMC6152089, “Steroid Alkaloids from Holarrhena africana with Strong Activity against Trypanosoma brucei rhodesiense” (Molecules : A Journal of Synthetic Chemistry and Natural …, 2017)
Several values for one entry are separate records, joined by “and”; a condition that tells them apart may be missing. Equal entries are not always repeated. Where two headings read alike, the source gives them in different places.

How the values were obtained:
[1] = Cytotoxicity against L6 cells; type: cell-based, rat; settings: rat
Method: (§1) In vitro tests for biological activity of the crude extracts, fractions, sub-fractions and isolated compounds against Trypanosoma brucei rhodesiense (bloodstream trypomastigotes, STIB 900 strain), Trypanosoma cruzi (amastigotes, Tulahuen C4 strain), Leishmania donovani (amastigotes, MHOM-ET-67/L82 strain), Plasmodium falciparum (intraerythrocytic form, NF54 strain) and cytotoxicity test against mammalian L6 cell line from rat skeletal myoblasts were performed according to the established standard protocol. However, only the activity data against Trypanosoma brucei rhodesiense is reported due to the inactivity of the tested substances against other parasites at the concentration tested.

[2] = tested on: Trypanosoma brucei rhodesiense (bloodstream trypomastigotes, STIB 900 strain); experiment: In vitro anti-trypanosomal activity against Tbr; type: cell-based
Method: as §1

[3] = tested on: L6 rat skeletal myoblasts; experiment: Cytotoxicity against L6 cells; type: cell-based
Method: as §1

[4] = isolated compounds, average of two determinations (a: one replicate), read-out: Cytotoxicity L6 Cells IC50
[5] = isolated compounds, average of two determinations (a: one replicate), read-out: Cytotoxicity L6 Cells IC50 (µg/mL)
[6] = Trypanosoma brucei, isolated compounds, average of two determinations ± absolute deviation, read-out: Tbr (STIB900) IC50
[7] = Trypanosoma brucei, isolated compounds, average of two determinations ± absolute deviation, read-out: Tbr (STIB900) IC50 (µg/mL)
[8] = isolated compounds, average of two determinations ± absolute deviation, read-out: Tbr (STIB900) IC50

Molecule	IC50 [2, 6] [µM]	IC50 [2, 7] [µg/mL]	IC50 [1]	IC50 [2, 8] [µM]	also measured
C[C@H]1[C@H]2CC[C@H]3[C@@H]4C(=O)C=C5C=CCC[C@]5(C)[C@H]4CC[C@]23CN1C [Compound 10, cona-3,5-dienin-7-one]	7.37 ± 0.94	2.4 ± 0.3			IC50 [1, 4]: 41.7 ± 18.9 µM; IC50 [1, 5]: 13.6 ± 6.2 µg/mL
C[C@]12C=CC(=O)C=C1CC[C@@H]1[C@@H]2[C@@H](O)C[C@]2(C)C(=O)CC[C@@H]12 [Compound 18, kurchinin]		3.64 ± 0.21			
CN[C@H]1CC[C@@]2(C)C(=CC[C@H]3[C@@H]4CC[C@@H]5[C@H](C)N(C)C[C@@]54CC[C@@H]32)C1 [Compound 12, isoconessimine]	0.17 ± 0.11	0.056 ± 0.038	9.38 µg/mL and 27.4 µM	0.166 ± 0.112	
CC(C)=CCC(=O)O[C@@H]1C[C@H]2[C@@H](CC=C3C[C@@H](N(C)C)CC[C@@]32C)[C@@H]2CC[C@@H]3[C@H](C)N(C)C[C@]312 [Compound 15, holarrhetine]	1.66 ± 0.39	0.777 ± 0.182	45.8 µg/mL and 97.7 µM		
CN[C@H]1CC[C@@]2(C)C(=CC[C@H]3[C@@H]4CC[C@@H]5[C@H](C)N(C)C[C@@]54[C@H](OC(=O)CC=C(C)C)C[C@@H]32)C1 [Compound 14, holarrhesine]	0.12 ± 0.08	0.054 ± 0.038	6.51 µg/mL and 14.3 µM	0.119 ± 0.084	
COc1cc([C@@H]2c3cc4c(cc3[C@H](O)[C@H]3COC(=O)[C@H]23)OCO4)cc(OC)c1OC [podophyllotoxin, reference compound]					IC50 ([1]; Table 1, Leaves, L6 cells (c: one replicate), read-out: Cytotox. L6 IC50): 0.004 ± 0.001 µg/mL
CC(=O)[C@H]1CC[C@H]2[C@@H]3CC=C4C[C@@H](N)CC[C@]4(C)[C@H]3CC[C@]12C [Compound 1, 3β-holaphyllamine]		0.127 ± 0.088	1.61 µg/mL and 5.1 µM	0.4 ± 0.28	
C[C@H]1[C@H]2CC[C@H]3[C@@H]4CC=C5C[C@@H](N(C)C)CC[C@]5(C)[C@H]4CC[C@]23CN1C [Compound 13, conessine]	0.42 ± 0.09	0.149 ± 0.031		0.419 ± 0.087	IC50 ([1]; L6 rat skeletal myoblast cells, isolated compounds, average of two determinations (a: one replicate), read-out: Cytotoxicity L6 Cells IC50): 61.2 µM; IC50 ([1]; L6 rat skeletal myoblast cells, isolated compounds, average of two determinations (a: one replicate), read-out: Cytotoxicity L6 Cells IC50 (µg/mL)): 21.8 µg/mL
Nc1nc(N)nc(Nc2ccc([As]3SCC(CO)S3)cc2)n1 (stereo not shown) [melarsoprol, reference compound]					IC50 ([2]; Trypanosoma brucei, read-out: Tbr IC50): 0.002 ± 0.001 µg/mL
C[C@@H]1N=C[C@]23C[C@H](O)[C@H]4[C@@H](CCC5=CC(=O)C=C[C@@]54C)[C@@H]2CC[C@H]13 [Compound 8, holonamine]	8.67 ± 2.33	2.82 ± 0.76	21.1 µg/mL and 64.9 µM		
CC(=O)[C@H]1CC[C@H]2[C@@H]3CC=C4C[C@H](N)CC[C@]4(C)[C@H]3CC[C@]12C [Compound 4, 3α-holaphyllamine]	0.37 ± 0.159	0.117 ± 0.05	5 µg/mL and 15.9 µM		
CC(=O)N[C@H]1CC[C@@]2(C)C(=CC[C@H]3[C@@H]4CC[C@H](C(C)=O)[C@@]4(C)CC[C@@H]32)C1 [Compound 2, holaphyllamine acetamide]	4.8 to 14.9	1.73 ± 0.47	5.49 µg/mL and 15.4 µM	4.83 ± 1.33	
C[C@H]1[C@H]2CC[C@H]3[C@@H]4CC=C5C[C@@H](N(C)C)CC[C@]5(C)[C@H]4C[C@@H](O)[C@]23CN1C [Compound 17, holarrhenine]	20.9 ± 6	7.78 ± 2.23	46.4 µg/mL and 125 µM		
C[C@H]1[C@H]2CC[C@H]3[C@@H]4CCC5=CC(=O)C=C[C@]5(C)[C@H]4CC[C@]23CN1C [Compound 7, holadienine]	14.9 ± 2.1	4.81 ± 0.68			
CC(=O)[C@H]1CC[C@H]2[C@@H]3CC[C@H]4C[C@@H](N)CC[C@]4(C)[C@H]3CC[C@]12C [Compound 5, 3β-dihydroholaphyllamine]	0.67 ± 0.03	0.213 ± 0.008		0.672 ± 0.027	IC50 [1, 4]: 17.4 ± 1.36 µM; IC50 [1, 5]: 5.51 ± 0.43 µg/mL
C[C@@H]1NC[C@]23CC[C@H]4[C@@H](CC=C5C[C@@H](N(C)C)CC[C@@]54C)[C@@H]2CC[C@H]13 [Compound 11, conessimine]	0.17 ± 0.08	0.057 ± 0.028	17.3 µg/mL and 50.4 µM	0.167 ± 0.083	
CN[C@H]1CC[C@@]2(C)C(=CC[C@H]3[C@@H]4CC[C@@H]5[C@H](C)N(C)C[C@@]54[C@H](O)C[C@@H]32)C1 [Compound 16, holarrheline]	8.21 ± 1.03	2.94 ± 0.37	64.8 µg/mL and 181 µM		
C[C@H]1[C@H]2CC[C@H]3[C@@H]4C=CC5=CC(=O)CC[C@]5(C)[C@H]4CC[C@]23CN1C [Compound 9, cona-4,6-dienin-3-one]	17.5 ± 0.2	5.69 ± 0.07	41.9 µg/mL and 129 µM		
N^3-isopentenyl adenine [Compound 19]					Cytotoxicity L6 Cells IC50 [3]: 61.30 ± 4.24 µg/mL; IC50 [3]: 302 ± 6.8 µM; Tbr (STIB900) IC50 ([2]; isolated compounds, average of two determinations ± absolute deviation): 5.03 ± 0.54 µg/mL
CN[C@H]1CC[C@@]2(C)C(=CC[C@H]3[C@@H]4CC[C@H](C(C)=O)[C@@]4(C)CC[C@@H]32)C1 [Compound 3, 3β-N-methylholaphyllamine]	0.08 ± 0.01	0.025 ± 0.001	0.829 µg/mL and 2.48 µM	0.075 ± 0.004	
CC(=O)[C@H]1CC[C@H]2[C@@H]3CC[C@H]4C[C@H](N)CC[C@]4(C)[C@H]3CC[C@]12C [Compound 6, 3α-dihydroholaphyllamine]	1.21 ± 0.75	0.382 ± 0.238			IC50 [1, 4]: 17 ± 1.2 µM; IC50 [1, 5]: 5.38 ± 0.39 µg/mL
